Laboratory results: patent US8492559B2, “Substituted indole compounds” (Gruenenthal GmbH, priority 2009, dated 2013)

Biological target: T1, B1R receptor of the rat (rB1R) (Rattus norvegicus, UniProt P97583)
T1 construct: expressed in transfected cells; host or cells: CHO K1 cells
T1 sequence (P97583 1-337): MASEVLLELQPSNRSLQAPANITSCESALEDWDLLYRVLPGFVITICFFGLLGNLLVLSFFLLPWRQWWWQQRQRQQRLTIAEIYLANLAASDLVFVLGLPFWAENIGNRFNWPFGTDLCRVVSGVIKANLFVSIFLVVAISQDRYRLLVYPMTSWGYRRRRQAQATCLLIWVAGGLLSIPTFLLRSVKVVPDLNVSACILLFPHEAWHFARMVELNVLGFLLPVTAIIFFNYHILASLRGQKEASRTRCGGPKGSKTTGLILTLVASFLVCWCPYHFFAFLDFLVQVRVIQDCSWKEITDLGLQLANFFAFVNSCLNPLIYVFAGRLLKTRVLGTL
Assay: Functional investigation on the bradykinin 1 receptor (B1R), FLIPR Ca2+ assay, rB1R cells
Format: cell-based
Details: CHO-K1, 10 μM test substance; CHO K1 cells with rat B1R; agonist Des-Arg9 bradykinin; % of maximum achievable inhibition; read-out: B1R antagonism, rat [10 μM] % inhibition
How it was run: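 Cells plated at 20,000-35,000/well, incubated overnight at 37° C, loaded with Fluo-4 (2.13 μM, 60 min, 37° C, or 2.5 μM in buffer A), then read in FLIPR (λex 488, λem 540 nm). Agonist: Lys-Des-[MUT] bradykinin (0.5 nM) or Des-[MUT] bradykinin (100 nM). IC50 from % inhibition versus maximum, n=2-3, N>=2.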

For Cc1cc(S(=O)(=O)Nc2ccc3ccn(CC(=O)N4CCC5(CC4)CCN(c4ccncc4)CC5)c3c2)c(C)cc1Cl [G_CC-36, 4-Chloro-2,5-dimethyl-N-[1-[2-oxo-2-(3-pyridin-4-yl-3,9-diazaspiro[5.5]undecan-9-yl)-ethyl]-1H-indol-6-yl]-benzenesulfonic acid amide], the inhibition at 10 µM was 63%.
